# pIC50: −log10 of the molar value.
# What was measured:
# NCI-H1650 cells = assay: Generation of drug-resistant NCI-H1650 colonies; format: cell-based; conditions: for generation of drug-resistant clones in vitro: NCI-H1650, irreversible inhibitors at concentrations above 10 μM, even after ethyl methane sulfonate mutagenesis
# ERBB2 = ERBB2 (Homo sapiens, UniProt P04626); conditions: read-out: IC50 for ERBB2; cited from earlier work
# [1] = system: NCI-H1650 cells (delE746-A750 EGFR); assay: Proliferation/cell killing of bronchoalveolar cancer cell line, crystal violet staining; conditions: NCI-H1650 vs NCI-H1666
# [2] = system: EGFR autophosphorylation (Y1068), AKT and MAPK phosphorylation in NCI-H1650 cells; assay: Immunoblotting of EGFR signaling in parental cells; format: cell-based; conditions: delE746-A750 EGFR
# Method: Viable cells were counted 72 h after treatment with double-stranded RNA and are shown as a fraction relative to cells treated with nonspecific siRNA, with standard deviations based on triplicate samples. […] Rhodamine-tagged EGF is used to label EGFR at 5 and 20 rain, after addition of ligand. […] (Zeiss microscope, ×63 magnification).
# (§1) Immunoblotting and Signaling Studies. […] Lysates were prepared in 2× gel loading buffer, sonicated, boiled, and then separated by 10% SDS/PAGE, followed by electrotransfer to polyvinylidene fluoride (PVDF) membranes, and immunoblotting. Antibodies used were phospho-EGFR Y1068 and phospho-mitogen-activated protein kinase (MAPK) (Cell Signaling Technology, Beverly, Mass.), phospho-AKT (BioSource International, Camarillo, Calif.), and total EGFR, MAPK, AKT, and tubulin (Santa Cruz Biotechnology).
# [3] = system: EGFR autophosphorylation, AKT and MAPK phosphorylation in NCI-H1975 cells (L858R and T790M EGFR); assay: Immunoblotting of EGFR signaling in T790M cell line; format: cell-based
# Method: Total EGFR, AKT, and MAPK are shown as loading controls.
# as §1
# Chain of ERBB2 (P04626 23-1255): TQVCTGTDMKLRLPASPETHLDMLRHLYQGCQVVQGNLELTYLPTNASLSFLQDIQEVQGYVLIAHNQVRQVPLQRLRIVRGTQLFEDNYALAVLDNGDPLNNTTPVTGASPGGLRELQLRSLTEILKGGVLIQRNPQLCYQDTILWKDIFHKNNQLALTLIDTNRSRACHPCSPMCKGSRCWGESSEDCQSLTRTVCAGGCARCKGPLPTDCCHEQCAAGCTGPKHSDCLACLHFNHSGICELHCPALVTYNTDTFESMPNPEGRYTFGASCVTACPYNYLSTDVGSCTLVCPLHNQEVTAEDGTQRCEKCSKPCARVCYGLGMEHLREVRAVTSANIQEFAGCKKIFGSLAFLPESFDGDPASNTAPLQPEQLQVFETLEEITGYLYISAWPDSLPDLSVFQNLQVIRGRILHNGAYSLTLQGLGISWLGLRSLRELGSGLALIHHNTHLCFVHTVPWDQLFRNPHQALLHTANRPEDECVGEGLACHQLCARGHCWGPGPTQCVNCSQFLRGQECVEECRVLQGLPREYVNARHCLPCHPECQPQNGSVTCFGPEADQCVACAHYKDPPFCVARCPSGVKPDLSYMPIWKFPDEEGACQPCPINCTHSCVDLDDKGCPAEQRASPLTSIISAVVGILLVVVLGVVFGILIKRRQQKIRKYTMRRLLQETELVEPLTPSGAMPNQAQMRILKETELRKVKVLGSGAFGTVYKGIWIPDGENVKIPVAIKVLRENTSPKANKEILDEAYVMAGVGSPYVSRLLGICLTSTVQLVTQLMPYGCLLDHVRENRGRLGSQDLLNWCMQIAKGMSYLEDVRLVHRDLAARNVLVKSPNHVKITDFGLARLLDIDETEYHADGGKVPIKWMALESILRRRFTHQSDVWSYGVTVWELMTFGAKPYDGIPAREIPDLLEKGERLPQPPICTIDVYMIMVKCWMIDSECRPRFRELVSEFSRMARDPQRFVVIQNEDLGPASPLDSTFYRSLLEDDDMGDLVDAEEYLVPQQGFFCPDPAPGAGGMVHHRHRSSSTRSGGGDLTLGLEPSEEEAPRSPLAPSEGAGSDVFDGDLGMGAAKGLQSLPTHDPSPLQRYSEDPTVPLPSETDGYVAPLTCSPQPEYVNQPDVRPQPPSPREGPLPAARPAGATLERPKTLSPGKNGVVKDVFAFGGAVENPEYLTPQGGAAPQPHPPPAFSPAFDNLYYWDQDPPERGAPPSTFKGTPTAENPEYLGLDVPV
SMILES,generation of drug-resistant clones in vitro (NCI-H1650 cells),pIC50 (ERBB2),killing of NSCLC cells harboring an EGFR mutation compared with cells expressing wild-type receptor [1],"effectiveness relative to gefitinib in suppressing EGFR autophosphorylation (Y1068), AKT and MAPK phosphorylation [2] [fold]",suppression of ligand-induced EGFR autophosphorylation and downstream AKT and MAPK phosphorylation [3],"frequency of drug-resistant colonies (NCI-H1650 cells; 20 μM gefitinib, irrespective of mutagen treatment)"
CCOc1cc2ncc(C#N)c(Nc3ccc(F)c(Cl)c3)c2cc1NC(=O)/C=C/CN(C)C [EKB-569],not readily generated,5.89,increased cell killing,–,–,–
CCOc1cc2ncc(C#N)c(Nc3ccc(OCc4cccc(F)c4)c(Cl)c3)c2cc1NC(=O)/C=C/CN(C)C [HKI-357],not readily generated,–,increased cell killing,10,considerably more effective than gefitinib,–
"COc1cc2ncnc(Nc3ccc(F)c(Cl)c3)c2cc1OCCCN1CCOCC1 [gefitinib, Gefitinib, reference compound]",readily generated,–,–,–,–,≈ 10^−5

# — patent publication US10596162B2 (WYETH LLC, priority 2005, dated 2020)
